≈ marks a conversion by molar mass, not a printed value. Where “and” joins values, the source holds several entries; their conditions need not be identical. Equal entries are not always repeated. Non-standard residues stand in square brackets, D forms with d. Residues, ends and D or L forms follow the SMILES beside them. Dip = N[C@H](C(=O)O)C(c1ccccc1)c1ccccc1
Key:
C. albicans (ATCC 60193) = assay: microbe, parasite or virus in culture; format: cell-based, Candida albicans; details: ATCC 60193, 24 h
Description: The antifungal activity of all ten synthesized linear and cyclic peptides was evaluated against C. albicans (ATCC 60193), C. parapsilosis (ATCC 22019), and A. fumigatus (AF-293). Fluconazole and amphotericin B were used as positive controls for this study. The MIC was determined at concentrations in wells with no visible fungal growth.
In this study, C. albicans and C. parapsilosis were cultured on Yeast Peptone Dextrose (YPD) agar containing 1% w/v yeast extract, 2% w/v peptone, 2% w/v D-glucose, and 1.5% agar. A single colony from the agar was selected and cultured in Tryptone soy broth supplemented with 0.1% D-glucose, then incubated for 24 h at 37 °C. The cells were washed twice with PBS by centrifugation at 2000 RPM for 5 min. The pellet was resuspended in 5 mL of PBS, diluted in RPMI 1640 with L-glutamine, supplemented with 2% D-glucose, and the pH adjusted using HEPES buffer. The suspension was then incubated for 50 min at 35 °C to achieve a final cell concentration of 10^6 cells/mL.
Peptide concentrations of 50, 25, 12.5, 6.25, and 3.1 μg/mL were tested in triplicate and repeated twice. Each well of a 96-well plate was inoculated with the prepared inoculum suspension, which was diluted with RPMI media to a final volume of 200 μL per well. The control well received the same inoculum without any compound. The plates were incubated for 24 h at 37 °C. Fungal and microbial growth were visually observed in the control wells, and the minimum inhibitory concentration (MIC) was determined as the lowest concentration at which no growth was detected in the wells. Amphotericin B was used as a standard antifungal drug.

[1] = test system: Gram-negative strains: K. pneumoniae, P. aeruginosa, and E. coli; assay: MIC, micro-broth dilution, span over Gram-negative strains; format: cell-based
Description: The antibacterial activity of all ten synthesized linear and cyclic peptides was evaluated against MRSA (ATCC BAA-1556), S. aureus (ATCC 29213), E. faecium (ATCC 700221), S. pneumoniae (ATCC 51938), E. faecalis (ATCC 29212), B. subtilis (ATCC-6633), K. pneumoniae (ATCC BAA-1705), P. aeruginosa (ATCC 27883), and E. coli (ATCC 25922). Meropenem and daptomycin were used as positive controls for this study. Certain peptides are marked as “NT” (not tested) against specific bacterial strains based on initial screening data. […] The MIC was determined by micro-broth dilution protocol, where the minimal concentrations were determined to be in wells with no visible bacterial growth.
All bacterial experiments were carried out in a laminar flow hood (Labconco, Kansas City, MO, USA). The bacterial strains were cultured following the guidelines set by the Clinical Laboratory Standards Institute (CLSI). Antibacterial assays were performed using a standard microtiter dilution method as described in previous studies. The minimum inhibitory concentration (MIC) refers to the lowest peptide concentration that inhibits bacterial growth in wells with no visible bacterial growth. MIC was determined by micro-broth dilution. Bacteria were cultured overnight in 6 mL of Luria Broth (LB). […]

SMILES: N=C(N)NCCC[C@@H]1NC(=O)[C@H](C(c2ccccc2)c2ccccc2)NC(=O)[C@H](CCCNC(=N)N)NC(=O)[C@H](C(c2ccccc2)c2ccccc2)NC(=O)[C@H](CCCNC(=N)N)NC(=O)[C@H](C(c2ccccc2)c2ccccc2)NC(=O)[C@H](CCCNC(=N)N)NC(=O)[C@H](C(c2ccccc2)c2ccccc2)NC(=O)[C@H](CCCNC(=N)N)NC(=O)[C@H](C(c2ccccc2)c2ccccc2)NC1=O [[DipR]5] (cyclo([Dip]R[Dip]R[Dip]R[Dip]R[Dip]R))
- MIC (C. albicans (ATCC 60193)): 13.1 µM (≈ 24.9 µg/mL)
- MIC values against Gram-negative strains [1]: 12.5–25 µM and 23.8–47.6 µg/mL
